Measured values as given in ChEMBL document CHEMBL3045393, “Aryldiones incorporating a [1,4,5]oxadiazepane ring. Part I: Discovery of the novel cereal herbicide pinoxaden” (Bioorg Med Chem, 2009).
Activity calls are given as the source filed them. No cut-off for these calls is given here.

Assays:
[1] = test system: Hordeum vulgare; test: Phytotoxicity against Hordeum vulgare cv. Fanfare (barley) at 60 g a.i./ha applied post-emergence measured after 12 days in presence of cloquintocet-mexyl; format: functional
[2] = test system: Hordeum vulgare; test: Phytotoxicity against Hordeum vulgare cv. Fanfare (barley) at 60 g a.i./ha applied post-emergence measured after 12 days; format: functional
[3] = test system: Lolium perenne; test: Post-emergence herbicidal activity against Lolium perenne (perennial ryegrass) at 30 g a.i./ha measured after 21 days in presence of 1% Merge adjuvant; format: functional
[4] = test system: Alopecurus myosuroides; test: Post-emergence herbicidal activity against Alopecurus myosuroides at 30 g a.i./ha measured after 21 days in presence of 1% Merge adjuvant; format: functional
[5] = test system: Avena fatua; test: Post-emergence herbicidal activity against Avena fatua at 30 g a.i./ha measured after 21 days in presence of 1% Merge adjuvant; format: functional
[6] = test system: Triticum aestivum; test: Phytotoxicity against Triticum aestivum (wheat) at 30 g a.i./ha applied post-emergence measured after 21 days in presence of 1% Merge adjuvant; format: organism-based; settings: in vivo, other, 504 h
[7] = test system: Hordeum vulgare; test: Phytotoxicity against Hordeum vulgare (barley) at 30 g a.i./ha applied post-emergence measured after 21 days in presence of 1% Merge adjuvant; format: organism-based; settings: in vivo, other, 504 h
[8] = test system: Setaria faberi; test: Post-emergence herbicidal activity against Setaria faberi (Giant Foxtail) at 30 g a.i./ha measured after 21 days in presence of 1% Merge adjuvant; format: functional
[9] = test system: Lolium rigidum; test: Post-emergence herbicidal activity against Lolium rigidum at 30 g a.i./ha measured after 20 days in presence of cloquintocet-mexyl; format: functional
[10] = test system: Lolium rigidum; test: Post-emergence herbicidal activity against Lolium rigidum at 30 g a.i./ha measured after 20 days; format: functional
[11] = test system: Avena fatua; test: Post-emergence herbicidal activity against Avena fatua at 30 g a.i./ha measured after 20 days; format: functional
[12] = test system: Avena fatua; test: Post-emergence herbicidal activity against Avena fatua at 30 g a.i./ha measured after 20 days in presence of cloquintocet-mexyl; format: functional
[13] = test system: Triticum aestivum; test: Phytotoxicity against Triticum aestivum cv. Remia (wheat) at 60 g a.i./ha applied post-emergence measured after 12 days in presence of cloquintocet-mexyl; format: functional
[14] = test system: Triticum aestivum; test: Phytotoxicity against Triticum aestivum cv. Remia (wheat) at 60 g a.i./ha applied post-emergence measured after 12 days; format: functional
[15] = test system: Triticum aestivum; test: Phytotoxicity against Triticum aestivum cv. Arina (wheat) at 60 g a.i./ha applied post-emergence measured after 12 days in presence of cloquintocet-mexyl; format: functional
[16] = test system: Triticum aestivum; test: Phytotoxicity against Triticum aestivum cv. Arina (wheat) at 60 g a.i./ha applied post-emergence measured after 12 days; format: functional
[17] = test system: Setaria faberi; test: Post-emergence herbicidal activity against Setaria faberi (Giant Foxtail) at 30 g a.i./ha measured after 21 days in presence of 0.2% X-77 adjuvant; format: functional
[18] = test system: Lolium perenne; test: Post-emergence herbicidal activity against Lolium perenne (perennial ryegrass) at 125 g a.i./ha measured after 21 days in presence of 0.2% X-77 adjuvant; format: functional
[19] = test system: Setaria faberi; test: Post-emergence herbicidal activity against Setaria faberi (Giant Foxtail) at 125 g a.i./ha measured after 21 days in presence of 0.2% X-77 adjuvant; format: functional
[20] = test system: Avena fatua; test: Post-emergence herbicidal activity against Avena fatua at 125 g a.i./ha measured after 21 days in presence of 0.2% X-77 adjuvant; format: functional
[21] = test system: Lolium perenne; test: Post-emergence herbicidal activity against Lolium perenne (perennial ryegrass) at 30 g a.i./ha measured after 21 days in presence of 0.2% X-77 adjuvant; format: functional
[22] = test system: Avena fatua; test: Post-emergence herbicidal activity against Avena fatua at 30 g a.i./ha measured after 21 days in presence of 0.2% X-77 adjuvant; format: functional
[23] = test system: Alopecurus myosuroides; test: Post-emergence herbicidal activity against Alopecurus myosuroides at 30 g a.i./ha measured after 21 days in presence of 0.2% X-77 adjuvant; format: functional
[24] = test system: Triticum aestivum; test: Phytotoxicity against Triticum aestivum (wheat) at 30 g a.i./ha applied post-emergence measured after 21 days in presence of 0.2% X-77 adjuvant; format: organism-based; settings: in vivo, other, 504 h
[25] = test system: Hordeum vulgare; test: Phytotoxicity against Hordeum vulgare (barley) at 30 g a.i./ha applied post-emergence measured after 21 days in presence of 0.2% X-77 adjuvant; format: organism-based; settings: in vivo, other, 504 h
[26] = test system: Alopecurus myosuroides; test: Post-emergence herbicidal activity against Alopecurus myosuroides at 125 g a.i./ha measured after 21 days in presence of 0.2% X-77 adjuvant; format: functional
[27] = test system: Triticum aestivum; test: Phytotoxicity against Triticum aestivum (wheat) at 125 g a.i./ha applied post-emergence measured after 21 days in presence of 0.2% X-77 adjuvant; format: organism-based; settings: in vivo, other, 504 h
[28] = test system: Hordeum vulgare; test: Phytotoxicity against Hordeum vulgare (barley) at 125 g a.i./ha applied post-emergence measured after 21 days in presence of 0.2% X-77 adjuvant; format: organism-based; settings: in vivo, other, 504 h
[29] = test system: Setaria faberi; test: Post-emergence herbicidal activity against Setaria faberi (Giant Foxtail) at 2000 g a.i./ha after 21 days; format: functional
[30] = test system: Lolium perenne; test: Post-emergence herbicidal activity against Lolium perenne (perennial ryegrass) at 500 g a.i./ha after 21 days; format: functional
[31] = test system: Lolium perenne; test: Post-emergence herbicidal activity against Lolium perenne (perennial ryegrass) at 2000 g a.i./ha after 21 days; format: functional
[32] = test system: Avena fatua; test: Post-emergence herbicidal activity against Avena fatua at 500 g a.i./ha after 21 days; format: functional
[33] = test system: Avena fatua; test: Post-emergence herbicidal activity against Avena fatua at 2000 g a.i./ha after 21 days; format: functional
[34] = test system: Alopecurus myosuroides; test: Herbicidal activity against Alopecurus myosuroides at > / = 250 g a.i./ha in presence of cloquintocet-mexyl; format: functional, organism-based
[35] = test system: Lolium multiflorum; test: Herbicidal activity against Lolium multiflorum (Italian ryegrass) at 125 g a.i./ha in presence of cloquintocet-mexyl; format: functional, organism-based
[36] = test system: Apera spica-venti; test: Herbicidal activity against Apera spica-venti at 125 g a.i./ha in presence of cloquintocet-mexyl; format: functional, organism-based
[37] = test system: Setaria faberi; test: Post-emergence herbicidal activity against Setaria faberi (Giant Foxtail) at 500 g a.i./ha after 21 days; format: functional
[38] = test system: Avena fatua; test: Herbicidal activity against Avena fatua at > / = 250 g a.i./ha in presence of cloquintocet-mexyl; format: functional, organism-based
[39] = Half life of hydrolysis at pH 7 at 50 degC; format: ADME; settings: buffer
[40] = test system: Hordeum vulgare; test: Phytotoxicity against Hordeum vulgare (barley) at 500 g a.i./ha applied post-emergence measured after 15 days; format: organism-based; settings: in vivo, other, 360 h
[41] = test system: Lolium perenne; test: Post-emergence herbicidal activity against Lolium perenne (perennial ryegrass) at 500 g a.i./ha measured after 15 days; format: functional
[42] = test system: Avena fatua; test: Post-emergence herbicidal activity against Avena fatua at 500 g a.i./ha measured after 15 days; format: functional
[43] = test system: Alopecurus myosuroides; test: Post-emergence herbicidal activity against Alopecurus myosuroides at 500 g a.i./ha measured after 15 days; format: functional
[44] = test system: Triticum aestivum; test: Phytotoxicity against Triticum aestivum (wheat) at 500 g a.i./ha applied post-emergence measured after 15 days; format: organism-based; settings: in vivo, other, 360 h
[45] = test system: Avena fatua; test: Post-emergence herbicidal activity against Avena fatua at 125 g a.i./ha measured after 21 days; format: functional
[46] = test system: Lolium perenne; test: Post-emergence herbicidal activity against Lolium perenne (perennial ryegrass) at 125 g a.i./ha measured after 21 days; format: functional
[47] = test system: Alopecurus myosuroides; test: Post-emergence herbicidal activity against Alopecurus myosuroides at 125 g a.i./ha measured after 21 days; format: functional
[48] = test system: Triticum aestivum; test: Phytotoxicity against Triticum aestivum (wheat) at 125 g a.i./ha applied post-emergence measured after 21 days; format: organism-based; settings: in vivo, other, 504 h
[49] = test system: Hordeum vulgare; test: Phytotoxicity against Hordeum vulgare (barley) at 125 g a.i./ha applied post-emergence measured after 21 days; format: organism-based; settings: in vivo, other, 504 h

Structure (SMILES) | Activity [1] [%] | Activity [2] [%] | Activity [3] [%] | Activity [4] [%] | Activity [5] [%] | Activity [6] [%] | Activity [7] [%] | Activity [8] [%] | Activity [9] [%] | Activity [10] [%] | Activity [11] [%] | Activity [12] [%] | Activity [13] [%] | Activity [14] [%] | Activity [15] [%] | Activity [16] [%] | also measured
CCc1cc(C)cc(CC)c1C1C(=O)N2CCOCCN2C1=O [PINOXADEN DIONE] | 0 | 40 | 90 | 100 | 100 | 10 | 0 | 90 | 90 | 90 | 90 | 90 | 0 | 50 | 0 | 20 | –
CCc1cccc(CC)c1C1C(=O)N2CCCCN2C1=O | – | – | 80 | 100 | 100 | 80 | 80 | 90 | – | – | – | – | – | – | – | – | Activity [17]: 40%; Activity [18]: 40%; Activity [19]: 40%; Activity [20]: 80%; Activity [21]: 50%; Activity [22]: 90%; Activity [23]: 80%; Activity [24]: 40%; Activity [25]: 10%; Activity [26]: 60%; Activity [27]: 0%; Activity [28]: 0%
Cc1cc(C)c(-c2c(OC(=O)C(C)(C)C)n3n(c2=O)CCOCC3)c(C)c1 | – | – | – | – | – | – | – | – | – | – | – | – | – | – | – | – | Activity [29]: 100%; Activity [30]: 90%; Activity [31]: 90%; Activity [32]: 90%; Activity [33]: 100%; Activity [34]: Active; Activity [35]: Active; Activity [36]: Active; Activity [37]: 90%; Activity [38]: Active
CCc1cc(C)cc(CC)c1-c1c(OC(=O)C(C)(C)C)n2n(c1=O)CCOCC2 [PINOXADEN] | 0 | 20 | 100 | 100 | 100 | 10 | 0 | 90 | 95 | 90 | 90 | 90 | 0 | 30 | 0 | 30 | half-life [39]: 20.6 h
Cc1cc(C)c(C2C(=O)N3CCCCN3C2=O)c(C)c1 [CGA-271312] | – | – | – | – | – | – | – | – | – | – | – | – | – | – | – | – | Activity [40]: 90%; Activity [41]: 90%; Activity [42]: 90%; Activity [43]: 60%; Activity [44]: 60%; Activity [45]: 50%; Activity [46]: 40%; Activity [47]: 40%; Activity [48]: 0%; Activity [49]: 40%
